Results taken from patent US10617694B2 (priority 2016, dated 2020).
Like-named read-outs stand apart in the source and are kept apart here.

Columns and labels:
[1] = tested on: patients with obstructive sleep apnea; design: key to Side effect paresthesia (P) (scale 0-3) / Side effect cognitive dysfunction (C) (scale 0-3): 1 = none; 2 = low; 3 = medium; 4 = high; settings: cited from earlier work; for Reduction in AHI / Reported adverse events. Frequency (n/patient): literature: acetazolamide meta data from 9 publications (n = 268), zonisamide Eskandari et al. (n = 13); for Efficacy AHI reduction (rating 0-3) / Side effect cognitive dysfunction (C) (scale 0-3) / Side effect paresthesia (P) (scale 0-3): literature: acetazolamide meta data, zonisamide Eskandari et al.
[2] = tested on: patients with obstructive sleep apnea; assay: Table 1 summary of efficacy and side effects in sleep apnea, compared with acetazolamide, topiramate and zonisamide data; type: in vivo, human; design: key to Side effect paresthesia (P) (scale 0-3) / Side effect cognitive dysfunction (C) (scale 0-3): 1 = none; 2 = low; 3 = medium; 4 = high; Reduction in AHI: concentration or dose not given beside the values; settings: for Side effect total rating (T) (scale 0-3): T = (P + 2C)/3, Table 1; for Reduction in AHI: own data: sultiame Examples 1 and 2 (n = 3); for Reduction in AHI / Efficacy AHI reduction (rating 0-3) / Side effect cognitive dysfunction (C) (scale 0-3) / Side effect paresthesia (P) (scale 0-3): acetazolamide Example 2; for Efficacy AHI reduction (rating 0-3) / Side effect cognitive dysfunction (C) (scale 0-3) / Side effect paresthesia (P) (scale 0-3): own data: sultiame Examples 1 and 2, topiramate unpublished data
Text: The results from Example 1 and 2 are summarized in table 1, below, where the results are further compared with data reflecting the effect of acetazolamide, topiramate and zonisamide in sleep apnea.

[3] = tested on: subjects with obstructive sleep apnea; assay: Long term effect of sultiame and acetazolamide in obstructive sleep apnea, sleep studies (Example 2); settings: for AHI at follow-up: sultiame 200 mg single daily dose for three months
[4] = tested on: Carbonic anhydrase (CA); assay: Carbonic anhydrase activity in venous blood from a patient with obstructive sleep apnea (pH curve AUC); type: biochemical, human; settings: diluted hemolysed blood of one OSA patient
Procedure: Carbonic anhydrase (CA) activity was assessed in human plasma from an apnea patient using a method previously described in detail (Teng et al, Sleep 2016). […] The blood sample (antecubital vein) was collected in an EDTA-coated tube, stored within 30 min at −20° C. and subsequently transferred to −70° C. Prior to analysis, the sample was slowly thawed, refrozen and re-thawed on ice in order to obtain hemolysis. The assay was adapted from a method previously described by Everaert et al (ref in Teng et al, Sleep 2016). In detail, a buffer consisting of 0.02M HEPES, 0.02M MES, 0.035M KCl and 0.015M NaCl with a balanced capacity in the pH 6-8 range was prepared. The subsequent analysis was conducted on ice in order to maintain a temperature of around 0-1° C. A separate solution constituting of 200 ml of 0-1° C. distilled water was continuously flushed with 100% CO2 and kept at 0-1° C. for at least 30 min. […] The pH in the reaction vessel was continuously monitored at 1 Hz during 120 s. […] The intra- and inter assay variability was 5.0% and 7.6%, respectively. pH curves were plotted and analysed (FIG. 1). In order to reflect time of the catalysed reaction the area under the curve (AUC, range 802-837) was calculated as the sum of all pH assessments during 120 sec. […]

[5] = cited from earlier work
[6] = tested on: healthy volunteers; assay: Clinical trial on tolerability of a high dose of sultiame in healthy volunteers; type: in vivo, human
Procedure: Most earlier clinical trials have been carried out in patients diagnosed with epilepsy. The goal of this study was to investigate the tolerability of sultiame in non-epileptic patients.
The trial involved 16 healthy volunteers. […] The administration was carried out without ramping up the dose. There were only two reports of adverse events in this group of 16 volunteers (32 dosing occasions, 12.5% of individuals or 6.25% of dosing occasions). These adverse events were limited to short periods of headache, which occurred when the drug was administered without food. The headache resolved within a short time frame.

[7] = tested on: patient with obstructive sleep apnea; assay: Repeated dosing of sultiame in obstructive sleep apnea, repeated sleep studies (Example 1); type: in vivo, human; settings: for central AHI: baseline 3.2 n/h; for obstructive AHI: baseline 12.4 n/h; for AHI: baseline 16.6 n/h; for lowest saturation: baseline 87%; for mean oxygen saturation: baseline 95.3%
Text: Person, BMI 28.3 kg/m^2. The subject was a non-smoker and there was no history of cardiovascular or metabolic disease and no regular medication. This subject presented with a history of snoring, witnessed apneas, and increased daytime sleepiness. They had previously tested both CPAP and mandibular advancement therapy with moderate regression of symptoms. The subject had experienced intolerable side effects including dry airways and sneezing caused by CPAP therapy. They had experienced discomfort from the temporomandibular joints following use of an intraoral device for mandibular advancement.
There had been a weight gain corresponding to 2 kg during the last three years.
It was decided that sultiame should be tested. Repeated sleep studies were undertaken before and after therapy with sultiame.
This second assessment provided the following values: AHI 9.8 n/h (central AHI 2.2 n/h and obstructive AHI 7.6/h), mean oxygen saturation 95.8%, lowest saturation 89%, and periodic breathing pattern 10.1 minutes.
There had been a weight reduction corresponding to 1.2 kg

[8] = own data: acetazolamide Example 2, topiramate unpublished data (n = 4)
[9] = topiramate unpublished data (n = 4)
[10] = sultiame 200 mg daily for three months, both subjects
[11] = 100 mg orally once daily, after 5 days

CC(=O)Nc1nnc(S(N)(=O)=O)s1 [Acetazolamide]
Reduction in AHI [1]: 37.3% | Reported adverse events. Frequency (n/patient) [1]: 1.08/patient | Reduction in AHI ([1]; listed as acetazolamide): 37.3% | Efficacy AHI reduction (rating 0-3) [1]: 2 (30-<50% = 2) | Side effect cognitive dysfunction (C) (scale 0-3) [1]: 2 | Side effect paresthesia (P) (scale 0-3) [1]: 4 | Side effect total rating (T) (scale 0-3) [2]: 2.7 | Reported adverse events. Frequency (n/patient) [2, 8]: 1.0/patient | Reduction in AHI [2, 9]: 28.0% | Efficacy AHI reduction (rating 0-3) [2]: 1 (5-<30% = 1) | Side effect cognitive dysfunction (C) (scale 0-3) [2]: 2 | Side effect paresthesia (P) (scale 0-3) [2]: 4 | side effects: paraesthesia ([3]; acetazolamide 500 mg o.d., both subjects): both subjects developed peripheral paraesthesia | oxygen desaturation index (ODI) ([3]; first subject, acetazolamide 500 mg o.d., 10 days after start, before 16.6 n/h): 12.6 n/h | AHI ([3]; first subject, acetazolamide 500 mg o.d., 10 days after start, before 17.4 n/h): 13.4 n/h | oxygen desaturation index (ODI) ([3]; second subject, acetazolamide 500 mg o.d., 16 days after start, before 12.6 n/h): 9.2 n/h | AHI ([3]; second subject, acetazolamide 500 mg o.d., 16 days after start, before 15.2 n/h): 10.2 n/h | CA activity after compound (peak inhibition), arbitrary units 850-AUC ([4]; 0-1° C., 120 s, activity without compound 32, concentrations 1×10^−11 to 5×10^−9 M): 19.5 units | reduction of CA activity ([4]; reduction from 32 units): 39%

NS(=O)(=O)Cc1noc2ccccc12 [Zonisamide]
Reduction in AHI [1]: 20.7% | Reported adverse events. Frequency (n/patient) [1]: 0.44/patient | Reduction in AHI ([1]; listed as zonisamide): 20.7% | Efficacy AHI reduction (rating 0-3) [1]: 1 (5-<30% = 1) | Side effect cognitive dysfunction (C) (scale 0-3) [1]: 4 | Side effect paresthesia (P) (scale 0-3) [1]: 2 | Side effect total rating (T) (scale 0-3) [2]: 3.3

CC1(C)O[C@@H]2[C@@H](CO[C@@]3(COS(N)(=O)=O)OC(C)(C)O[C@@H]23)O1 [Topiramate]
Side effect total rating (T) (scale 0-3) [2]: 3.7 | Reported adverse events. Frequency (n/patient) [2, 8]: 0.75/patient | Reduction in AHI [2, 9]: 28.0% | Reduction in AHI ([2]; topiramate unpublished data (n = 4), listed as topiramate): 28.0% | Efficacy AHI reduction (rating 0-3) [2]: 1 (5-<30% = 1) | Side effect cognitive dysfunction (C) (scale 0-3) [2]: 4 | Side effect paresthesia (P) (scale 0-3) [2]: 3

NS(=O)(=O)c1ccc(N2CCCCS2(=O)=O)cc1 [Sultiame]
half-life in plasma [5]: about 24 hrs | tolerability at high doses ([6]; 200 mg without ramping up the dose, healthy volunteers): excellent tolerability | reports of adverse events (short periods of headache, drug administered without food) ([6]; 200 mg, 16 volunteers, 32 dosing occasions): two | adverse events, % of dosing occasions ([6]; 200 mg, 32 dosing occasions, 16 healthy volunteers): 6.25% | adverse events, % of individuals ([6]; 200 mg, two times (with and without prior food intake), 16 healthy volunteers): 12.5% | Side effect total rating (T) (scale 0-3) [2]: 1 | Reduction in AHI [2, 9]: 62.7% | Reduction in AHI ([2]; topiramate unpublished data (n = 4), listed as sultiame): 62.7% | Efficacy AHI reduction (rating 0-3) [2]: 3 (≥50% = 3) | Side effect cognitive dysfunction (C) (scale 0-3) [2]: 1 | Side effect paresthesia (P) (scale 0-3) [2]: 1 | Reported adverse events. Frequency (n/patient) ([2]; sultiame, Examples 1 and 2 (n = 3)): 0% (AHI reduction 0-5 < % = 0) | adverse effects after administration ([2]; sultiame, patients with obstructive sleep apnea, Examples 1 and 2): not observed | AHI at follow-up ([3]; first subject, day 89, before 17.4 n/h): 7.6 n/h | AHI at follow-up ([3]; second subject, day 90, before 15.2 n/h): 6.5 n/h | daytime sleepiness ([3]; sultiame 200 mg daily for three months, both cases): reduction of daytime sleepiness | side effects: paraesthesia [3, 10]: not reported | snoring [3, 10]: reduced snoring | tolerability [3, 10]: well tolerated by both subjects | effectiveness in decreasing sleep apnea versus acetazolamide ([3]; sultiame 200 mg daily versus acetazolamide 500 mg o.d.): considerably more effective than acetazolamide | daytime symptoms of sleepiness [7, 11]: general resolution of daytime symptoms of sleepiness | central AHI [7, 11]: 2.2 n/h | obstructive AHI [7, 11]: 7.6 h⁻¹ | AHI [7, 11]: 9.8 n/h | lowest saturation [7, 11]: 89% | mean oxygen saturation [7, 11]: 95.8% | periodic breathing pattern ([7]; 100 mg orally once daily, after 5 days, baseline 14.3 minutes): 10.1 min | central AHI ([7]; 200 mg once daily for 14 days): 1.2 n/h | obstructive AHI ([7]; 200 mg once daily for 14 days): 3.0 n/h | AHI ([7]; 200 mg once daily for 14 days): 4.2 n/h | lowest saturation ([7]; 200 mg once daily for 14 days): 90% | mean oxygen saturation ([7]; 200 mg once daily for 14 days): 96.7% | periodic breathing pattern duration ([7]; 200 mg once daily for 14 days, baseline 14.3 minutes): 2.8 min | dose dependence of AHI reduction ([7]; 200 mg once daily versus 100 mg once daily): reduced AHI in a dose-dependent manner
